Legend:
[1] = biological target: T1, FRL-PSI (far-red light-acclimated Photosystem I trimer) (Fischerella thermalis, UniProt G6FME9+G6FMF0); assay: cryo-EM structure ([…] Å); reversed-phase HPLC of extracted pigments; assay type: binding; settings: presence shown by HPLC
T1 construct: gene psaA; native trimer from FRL-grown cells, DM-solubilised, sucrose gradients; 36 subunits (12 per monomer), ~1 MDa; with Photosystem I reaction center subunit II; Photosystem I reaction center subunit IV; Photosystem I reaction center subunit VIII; Photosystem I reaction center subunit XII; Photosystem I 4.8K protein

[2] = biological target: T1, FRL-PSI (far-red light-acclimated Photosystem I trimer); assay: reversed-phase HPLC of extracted pigments; assay type: binding; settings: native complex; site not assigned (modelled as beta-carotene)
[3] = biological target: Far-red light-acclimated Photosystem I (FRL-PSI) monomer from Fischerella thermalis PCC 7521 (Fischerella thermalis PCC 7521) (UniProt G6FW50); assay: cryo-EM structure; single-particle cryo-EM of trimeric FRL-PSI isolated from FRL-grown F. thermalis; plunge-frozen in 300 mM tricine pH 8.0, 50 mM NaCl; 178,666 particles, C3 symmetry, global resolution 3.19 Å

CC1=C(/C=C/C(C)=C/C=C/C(C)=C/C=C/C=C(C)/C=C/C=C(C)/C=C/C2=C(C)CCCC2(C)C)C(C)(C)CCC1 [β-carotene]
cryo-EM structure (3.19 Å); reversed-phase HPLC of extracted pigments ([1]; not distinguishable from echinenone in the map): all carotenoids are modeled as β-carotene (BCR)

CC1=C(/C=C/C(C)=C/C=C/C(C)=C/C=C/C=C(C)/C=C/C=C(C)/C=C/C2=C(C)C(=O)CCC2(C)C)C(C)(C)CCC1 [echinenone]
reversed-phase HPLC of extracted pigments [2]: both complexes contain a mixture of β-carotene and echinenone

Far-red light-acclimated Photosystem I (FRL-PSI) monomer from Fischerella thermalis PCC 7521 (from UniProt G6FW50 1-81; G6FQU3 1-72) (complex)
stoichiometry N [3]: 3

C=Cc1c(C=O)c2[n]3c1=CC1=NC(=Cc4c(C)c5c([n]4[Mg]3)C(=C3N=C(C=2)C(C)C3CCC(=O)OCC=C(C)CCCC(C)CCCC(C)CCCC(C)C)C(C(=O)OC)C5=O)C(CC)=C1C (stereo not shown) [Chl f]
cryo-EM structure (3.19 Å); reversed-phase HPLC of extracted pigments ([1]; sites A20, A21, B30, B37 modelled as Chl f, assigned indirectly from environment): sites of Chl A20, Chl A21, Chl B30, and Chl B37, accounting for four

Source: PMC7002129, “The structure of Photosystem I acclimated to far-red light illuminates an ecologically important acclimation process in photosynthesis” (Science Advances, 2020)
